What was measured:
[1] = system: splenic cells of Lewis rats; assay: Test 2: Determination of T-cell growth inhibitor activity (T lymphocyte blastogenesis, Concanavalin A, AlamarBlue); assay type: cell-based; conditions: Lewis rat splenic cells, 72 hours, AlamarBlue Assay, read-out: Test 2: T-cell growth inhibitory activity IC50
Protocol: Test 2: Determination of T-Cell Growth Inhibitor Activity
The T lymphocyte blastogenesis test was performed in microtiter plates with each well containing 1.5×10^5 splenic cells of Lewis rats in 0.1 mL RPMI-1640 medium supplemented with 10% fetal bovine serum-(FBS), […] 2-mercaptoethanol, penicilln (100 units/mL) and streptomycin (100 μg/mL), to which Concanavalin A ([…]) was added. The cells were incubated at 37° C. in a humidified atmosphere of 5% CO2 for 72 hours. After the culture period, suppressive activities of the test compounds in T lymphocyte blastogenesis were quantified by AlamarBlue (trademark) Assay. The test samples were dissolved in DMSO and further diluted with RPMI-1640 medium and added to the culture. The activities of the test compounds were expressed as IC50.

[2] = target: human histone deacetylase; assay: Test 1: Determination of histone deacetylase inhibitor activity ([3H]acetyl histone deacetylation); assay type: biochemical; conditions: human histone deacetylase partially purified from Jurkat cells; [3H]acetyl-labeled histones, 25° C., 30 minutes; read-out: Test 1: HDAC inhibitory activity IC50
Protocol: Test 1: Determination of Histone Deacetylase Inhibitor Activity
The partial purification of human histone deacetylase, the preparation of [^3H] acetyl histones, and the assay for histone deacetylase activity were performed basically according to the method as proposed by Yoshida et al. as follows.
Partial Purification of Human Histone Deacetylase
The human histone deacetylase was partially purified from human T cell leukemia Jurkat cells. Jurkat cells (5×10^8 cells) were suspended in 40 mL of the HDA buffer consisting of 15 mM potassium phosphate, pH 7.5, 5% glycerol and 0.2 mM EDTA. After homogenization, nuclei were collected by centrifugation (35,000×g, 10 min) and homogenized in 20 mL of the same buffer supplemented with 1 M (NH4)2SO4. The viscous homogenate was sonicated and clarified by centrifugation (35,000×g, 10 min), and the deacetylase was precipitated by raising the concentration of (NH4)2SO4 to 3.5 M. The precipitated protein was dissolved in 10 mL of the HDA buffer and dialyzed against 4 liters of the same buffer. The dialyzate was then loaded onto a DEAE-cellulose (Whatman DE52) column (25×85 mm) equilibrated with the same buffer and eluted with 300 mL of a linear gradient (0–0.6 M) of NaCl. A single peak of histone deacetylase activity appeared between 0.3 and 0.4 M NaCl.
Preparation of [^3H] Acetyl Histone
To obtain [^3H] acetyl-labeled histone as the substrate for the histone deacetylase assay, 1×10^8 cells of Jurkat in 20 mL of RPMI-1640 medium (supplemented with 10% FBS, penicillin (50 units/mL) and streptomycin (50 μg/mL)) were incubated with 300 MBq [^3H] sodium acetate in the presence of 5 mM sodium butyrate for 30 minutes in 5% CO2-95% air atmosphere at 37° C. in a 75 cm^2 flask, harvested into a centrifuge tube (50 mL), collected by centrifugation at 1000 rpm for 10 minutes, and washed once with phosphate-buffered saline. The washed cells were suspended in 15 mL of ice-cold lysis buffer (10 mM Tris-HCl, 50 mM sodium bisulfite, 1% Triton X-100, 10 mM MgCl2, 8.6% sucrose, pH 6.5). After Dounce homogenization (30 stroke), the nuclei were collected by centrifugation at 1000 rpm for 10 minutes, washed 3 times with 15 mL of the lysis buffer, and once with 15 mL of ice-cooled washing buffer (10 mM Tris-HCl, 13 mM EDTA, pH 7.4) successively. […]
For the standard assay, 10 μl of [^3H] acetyl-labeled histones were added to 90 μl of the enzyme fraction, and the mixture was incubated at 25° C. for 30 minutes. […] The released [^3H] acetic acid was extracted with 1 mL of ethyl acetate, and 0.9 mL of the solvent layer was taken into 10 mL of toluene scintillation solution for determination of radioactivity.

Row | Structure (SMILES) | IC50 [1] | IC50 [2]
1 | O=C(/C=C/c1ccc(CCc2nc3ccccc3[nH]2)cc1)NO [Compound E3] | 160 nM | 140 nM
2 | O=C(/C=C/c1cccc(Cc2nc3ccccc3[nH]2)c1)NO [Compound E6] | 150 nM | 150 nM
3 | O=C(/C=C/c1ccc(C(Cc2ccccc2)c2nc3ccccc3n2Cc2ccccc2)cc1)NO (centres unmarked) [Compound E5] | 310 nM | 96 nM
4 | O=C(/C=C/c1ccc(Cc2nc3ccccc3[nH]2)cc1)NO [Compound E1] | 69 nM | 28 nM

Reference: patent US7135493B2, “HDAC inhibitor” (Astellas Pharma Inc., priority 2003, dated 2006)
